Test results taken from ChEMBL document CHEMBL1201862, “PubChem BioAssay data set” (2004).
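Results reflect a 48-hour exposure of cells in 96-well plates to compound at five concentrations. GI50 is the concentration that inhibits growth by half.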 The source made the active and inactive calls. Rule as the data show it: active = GI50 up to about 1.1 µM and inactive = higher.

Key:
Experiment in all cases: DTP human tumour cell line panel, 48 h
LOX IMVI = tested on: LOX IMVI
M14 = tested on: M14
HL-60 = tested on: HL-60
OVCAR-3 = tested on: OVCAR-3
Malme-3M = tested on: Malme-3M
SK-MEL-5 = tested on: SK-MEL-5
MDA-N = tested on: MDA-N
T47D = tested on: T47D
SK-OV-3 = tested on: SK-OV-3
NCI-H460 = tested on: NCI-H460
UACC-62 = tested on: UACC-62
SNB-75 = tested on: SNB-75
NCI-H522 = tested on: NCI-H522
OVCAR-5 = tested on: OVCAR-5
UACC-257 = tested on: UACC-257
MDA-MB-435 = tested on: MDA-MB-435
786-0 = tested on: 786-0
MOLT-4 = tested on: MOLT-4
MDA-MB-231 = tested on: MDA-MB-231
SNB-19 = tested on: SNB-19
SR = tested on: SR
NCI-H23 = tested on: NCI-H23
SK-MEL-2 = tested on: SK-MEL-2
HT-29 = tested on: HT-29
HCT-15 = tested on: HCT-15
SW-620 = tested on: SW-620
MCF7 = tested on: MCF7
HOP-62 = tested on: HOP-62
TK-10 = tested on: TK-10
BT-549 = tested on: BT-549
Hs-578T = tested on: Hs-578T
PC-3 = tested on: PC-3
UO-31 = tested on: UO-31
A549 = tested on: A549
RXF 393 = tested on: RXF 393
OVCAR-8 = tested on: OVCAR-8
NCI/ADR-RES = tested on: NCI/ADR-RES
DU-145 = tested on: DU-145
OVCAR-4 = tested on: OVCAR-4
IGROV-1 = tested on: IGROV-1
CAKI-1 = tested on: CAKI-1
SK-MEL-28 = tested on: SK-MEL-28
HCT-116 = tested on: HCT-116
SF-295 = tested on: SF-295
KM12 = tested on: KM12
COLO 205 = tested on: COLO 205
SF-268 = tested on: SF-268
RPMI-8226 = tested on: RPMI-8226
K562 = tested on: K562
U-251 = tested on: U-251
CCRF-CEM = tested on: CCRF-CEM
SN12C = tested on: SN12C
HCC 2998 = tested on: HCC 2998
ACHN = tested on: ACHN
SF-539 = tested on: SF-539
NCI-H226 = tested on: NCI-H226
EKVX = tested on: EKVX
HOP-92 = tested on: HOP-92

## COc1ccc(-c2c(C#N)c(S)n(NS(=O)(=O)c3ccccc3)c(=O)c2C#N)cc1
LOX IMVI
  GI50: 35.9 µM (inactive)
M14
  GI50: 58.6 µM (inactive)
HL-60
  GI50: 47.1 µM (inactive)
OVCAR-3
  GI50: 87.9 µM (inactive)
Malme-3M
  GI50: > 96.6 µM (inactive)
SK-MEL-5
  GI50: 36.7 µM (inactive)
MDA-N
  GI50: 45.6 µM (inactive)
T47D
  GI50: 36.1 µM (inactive)
SK-OV-3
  GI50: > 100 µM (inactive)
NCI-H460
  GI50: 48.5 µM (inactive)
UACC-62
  GI50: 34.5 µM (inactive)
SNB-75
  GI50: > 100 µM (inactive)
NCI-H522
  GI50: 26.4 µM (inactive)
OVCAR-5
  GI50: > 100 µM (inactive)
UACC-257
  GI50: 80.9 µM (inactive)
MDA-MB-435
  GI50: 34.3 µM (inactive)
786-0
  GI50: 35.2 µM (inactive)
MOLT-4
  GI50: 53.2 µM (inactive)
MDA-MB-231
  GI50: 88.9 µM (inactive)
SNB-19
  GI50: > 100 µM (inactive)
SR
  GI50: 23.1 µM (inactive)
NCI-H23
  GI50: 75.2 µM (inactive)
SK-MEL-2
  GI50: 47 µM (inactive)
HT-29
  GI50: 45.6 µM (inactive)
HCT-15
  GI50: 40.6 µM
SW-620
  GI50: 40.9 µM (inactive)
MCF7
  GI50: 59.6 µM (inactive)
HOP-62
  GI50: > 100 µM (inactive)
TK-10
  GI50: 29.3 µM (inactive)
BT-549
  GI50: 14.3 µM (inactive)
Hs-578T
  GI50: 49 µM (inactive)
PC-3
  GI50: 37.7 µM (inactive)
UO-31
  GI50: 65 µM (inactive)
A549
  GI50: 56.2 µM (inactive)
RXF 393
  GI50: 37.8 µM (inactive)
OVCAR-8
  GI50: 48.8 µM (inactive)
NCI/ADR-RES
  GI50: 70.5 µM (inactive)
DU-145
  GI50: > 100 µM (inactive)
OVCAR-4
  GI50: 46.6 µM (inactive)
IGROV-1
  GI50: 31.9 µM (inactive)
CAKI-1
  GI50: > 72.8 µM (inactive)
SK-MEL-28
  GI50: > 100 µM (inactive)
HCT-116
  GI50: 37.9 µM (inactive)
SF-295
  GI50: 77.3 µM (inactive)
KM12
  GI50: 70.6 µM (inactive)
COLO 205
  GI50: 58.1 µM (inactive)
SF-268
  GI50: 62.7 µM (inactive)
RPMI-8226
  GI50: 42.8 µM (inactive)
K562
  GI50: 42.5 µM (inactive)
U-251
  GI50: 40.4 µM (inactive)
CCRF-CEM
  GI50: 24.3 µM (inactive)
SN12C
  GI50: 46.5 µM (inactive)
HCC 2998
  GI50: > 100 µM (inactive)
ACHN
  GI50: 55.7 µM (inactive)
SF-539
  GI50: 24.5 µM (inactive)
NCI-H226
  GI50: > 100 µM (inactive)

## COc1ccc2oc(=O)c(-c3cc4c(c(C)n3)c(=O)oc3ccc(OC)cc34)cc2c1
LOX IMVI
  GI50: > 100 µM (inactive)
M14
  GI50: > 100 µM (inactive)
HL-60
  GI50: > 100 µM (inactive)
OVCAR-3
  GI50: > 100 µM (inactive)
SK-MEL-5
  GI50: > 100 µM (inactive)
MDA-N
  GI50: > 100 µM (inactive)
T47D
  GI50: > 100 µM (inactive)
SK-OV-3
  GI50: > 100 µM (inactive)
NCI-H460
  GI50: > 100 µM (inactive)
UACC-62
  GI50: 35.8 µM (inactive)
SNB-75
  GI50: > 100 µM (inactive)
NCI-H522
  GI50: > 100 µM (inactive)
UACC-257
  GI50: > 100 µM (inactive)
MDA-MB-435
  GI50: > 100 µM (inactive)
786-0
  GI50: 1.94 µM (inactive)
MOLT-4
  GI50: > 100 µM (inactive)
MDA-MB-231
  GI50: > 100 µM (inactive)
SNB-19
  GI50: 25.5 µM (inactive)
SR
  GI50: > 100 µM (inactive)
NCI-H23
  GI50: > 100 µM (inactive)
SK-MEL-2
  GI50: > 100 µM (inactive)
HT-29
  GI50: 80.5 µM (inactive)
HCT-15
  GI50: > 100 µM
SW-620
  GI50: > 100 µM (inactive)
MCF7
  GI50: > 100 µM (inactive)
HOP-62
  GI50: 30.4 µM (inactive)
TK-10
  GI50: > 100 µM (inactive)
BT-549
  GI50: > 100 µM (inactive)
Hs-578T
  GI50: 27.4 µM (inactive)
PC-3
  GI50: > 100 µM (inactive)
UO-31
  GI50: > 100 µM (inactive)
A549
  GI50: > 100 µM (inactive)
RXF 393
  GI50: > 100 µM (inactive)
OVCAR-8
  GI50: > 100 µM (inactive)
EKVX
  GI50: > 100 µM (inactive)
NCI/ADR-RES
  GI50: > 100 µM (inactive)
DU-145
  GI50: > 100 µM (inactive)
HOP-92
  GI50: > 100 µM (inactive)
IGROV-1
  GI50: > 100 µM (inactive)
CAKI-1
  GI50: 70.8 µM (inactive)
SK-MEL-28
  GI50: > 100 µM (inactive)
HCT-116
  GI50: > 100 µM (inactive)
SF-295
  GI50: 95.7 µM (inactive)
KM12
  GI50: > 100 µM (inactive)
COLO 205
  GI50: > 100 µM (inactive)
SF-268
  GI50: 55.8 µM (inactive)
RPMI-8226
  GI50: > 100 µM (inactive)
K562
  GI50: > 100 µM (inactive)
U-251
  GI50: > 100 µM (inactive)
CCRF-CEM
  GI50: > 100 µM (inactive)
SN12C
  GI50: > 100 µM (inactive)
HCC 2998
  GI50: > 100 µM (inactive)
ACHN
  GI50: 27.2 µM (inactive)
SF-539
  GI50: 93.5 µM (inactive)
NCI-H226
  GI50: > 100 µM (inactive)

## N#Cc1nc(CCCN2C(=O)c3ccccc3C2=O)oc1N
LOX IMVI
  GI50: > 100 µM (inactive)
M14
  GI50: > 100 µM (inactive)
OVCAR-3
  GI50: > 100 µM (inactive)
Malme-3M
  GI50: > 100 µM (inactive)
SK-MEL-5
  GI50: > 100 µM (inactive)
MDA-N
  GI50: > 100 µM (inactive)
T47D
  GI50: > 100 µM (inactive)
SK-OV-3
  GI50: > 100 µM (inactive)
NCI-H460
  GI50: > 100 µM (inactive)
NCI-H522
  GI50: > 100 µM (inactive)
OVCAR-5
  GI50: > 100 µM (inactive)
UACC-257
  GI50: > 100 µM (inactive)
MDA-MB-435
  GI50: > 100 µM (inactive)
786-0
  GI50: > 100 µM (inactive)
MOLT-4
  GI50: > 100 µM (inactive)
MDA-MB-231
  GI50: > 100 µM (inactive)
SNB-19
  GI50: > 100 µM (inactive)
SR
  GI50: > 100 µM (inactive)
NCI-H23
  GI50: > 100 µM (inactive)
SK-MEL-2
  GI50: > 100 µM (inactive)
HT-29
  GI50: > 100 µM (inactive)
HCT-15
  GI50: > 100 µM
SW-620
  GI50: > 100 µM (inactive)
MCF7
  GI50: > 100 µM (inactive)
HOP-62
  GI50: > 100 µM (inactive)
TK-10
  GI50: > 100 µM (inactive)
BT-549
  GI50: > 100 µM (inactive)
Hs-578T
  GI50: > 100 µM (inactive)
PC-3
  GI50: > 100 µM (inactive)
UO-31
  GI50: > 100 µM (inactive)
A549
  GI50: > 100 µM (inactive)
RXF 393
  GI50: > 100 µM (inactive)
OVCAR-8
  GI50: > 100 µM (inactive)
EKVX
  GI50: > 100 µM (inactive)
NCI/ADR-RES
  GI50: > 100 µM (inactive)
DU-145
  GI50: > 100 µM (inactive)
OVCAR-4
  GI50: > 100 µM (inactive)
IGROV-1
  GI50: > 100 µM (inactive)
CAKI-1
  GI50: > 100 µM (inactive)
SK-MEL-28
  GI50: > 100 µM (inactive)
HCT-116
  GI50: > 100 µM (inactive)
SF-295
  GI50: > 100 µM (inactive)
COLO 205
  GI50: > 100 µM (inactive)
SF-268
  GI50: > 100 µM (inactive)
RPMI-8226
  GI50: > 100 µM (inactive)
K562
  GI50: > 100 µM (inactive)
U-251
  GI50: > 100 µM (inactive)
CCRF-CEM
  GI50: > 100 µM (inactive)
SN12C
  GI50: > 100 µM (inactive)
HCC 2998
  GI50: > 100 µM (inactive)
ACHN
  GI50: > 100 µM (inactive)
SF-539
  GI50: > 100 µM (inactive)
NCI-H226
  GI50: > 100 µM (inactive)
